In the NIST ThermoML archive (doi:10.1021/je0502849):

Settings: Liquid, Pulse-echo method

CC(C)CC(C)(C)C [2,2,4-trimethylpentane]
speed of sound [m/s]
Settings	293.15 K	303.15 K	313.15 K	323.15 K	333.15 K
100 kPa	1104.6	1061.7	1019.1	977.9	935.8
10000 kPa	1178.5	1139.3	1100.9	1063.5	1026.6
20000 kPa	1244.6	1208.6	1173	1138.8	1105.2
30000 kPa	1304.8	1270.2	1237	1204.7	1173
40000 kPa	1358.5	1326.8	1295.2	1264.6	1234.2
50000 kPa	1410.3	1378.5	1349.3	1319	1290.2
60000 kPa	1458.1	1427	1397.6	1369.8	1341.8
70000 kPa	1502.5	1472.6	1443.4	1416.6	1390
80000 kPa	1544.7	1515.6	1487.6	1461.2	–
90000 kPa	1584.5	1556.4	1529	1503.4	–
100000 kPa	1622.6	1594.5	1568.7	1543.4	–
110000 kPa	1658.9	1632.1	1605.9	1581.4	–
120000 kPa	1694	1667.5	1641.7	1617.8	–
130000 kPa	1727.5	1701.6	1676.3	1653.1	–
140000 kPa	1760.1	1734.3	1709.4	1686.4	–
150000 kPa	1791.1	1766.4	1741.7	1718.6	–
